Measured values published in US9302999B2, “Substituted triazoles as herbicides” (E. I. DU PONT DE NEMOURS AND COMPANY, priority 2012, dated 2016).

Legend:
Assay type in all cases: in vivo
[1] = tested on: barnyardgrass (Echinochloa crus-galli); test: Test A pre-/postemergence: barnyardgrass; conditions: for Barnyardgrass plant response rating: Postemergence; for Plant response rating, Barnyardgrass: Preemergence
Method in brief: (§1)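 Visual 0–100 injury ratings (0 no effect, 100 complete control) taken about ten days after treatment, relative to untreated controls. Preemergence treatment was a directed soil spray; postemergence plants were 2–10 cm tall at one- to two-leaf stage. Soil: loam/sand blend.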

[2] = tested on: crabgrass, large (large crabgrass, Digitaria sanguinalis); test: Test A pre-/postemergence: crabgrass, large; conditions: for Crabgrass, Large plant response rating: Postemergence; for Plant response rating, Crabgrass, Large: Preemergence
Method in brief: as §1

[3] = tested on: foxtail, giant (giant foxtail, Setaria faberii); test: Test A pre-/postemergence: foxtail, giant; conditions: for Foxtail, Giant plant response rating: Postemergence; for Plant response rating, Foxtail, Giant: Preemergence
Method in brief: as §1

[4] = tested on: morningglory (Ipomoea spp.); test: Test A pre-/postemergence: morningglory
Method in brief: as §1

[5] = tested on: pigweed (Amaranthus retroflexus); test: Test A pre-/postemergence: pigweed
Method in brief: as §1

[6] = tested on: velvetleaf (Abutilon theophrasti); test: Test A pre-/postemergence: velvetleaf
Method in brief: as §1

[7] = tested on: wheat (Triticum aestivum); test: Test A pre-/postemergence: wheat
Method in brief: as §1

[8] = tested on: corn (Zea mays); test: Test A pre-/postemergence: corn; conditions: for Corn plant response rating: Postemergence; for Plant response rating, Corn: Preemergence
Method in brief: as §1

[9] = tested on: rice (Oryza sativa); test: Test B flooded paddy: rice; conditions: Flood; 250 g ai/ha; applied to paddy water at 2-leaf stage; visually evaluated after 13 to 15 days
Description: (§2) Seeds selected from rice (Oryza sativa), sedge, umbrella (small-flower umbrella sedge Cyperus difformis), ducksalad (Heteranthera limosa), and barnyardgrass (Echinochloa crus-galli) were grown to the 2-leaf stage for testing. At time of treatment, test pots were flooded to 3 cm above the soil surface, treated by application of test compounds directly to the paddy water, and then maintained at that water depth for the duration of the test.
(§3) Treated plants and controls were maintained in a greenhouse for 13 to 15 days, after which time all species were compared to controls and visually evaluated. Plant response ratings, summarized in Table B, are based on a scale of 0 to 100 where 0 is no effect and 100 is complete control. A dash (-) response means no test result.

[10] = tested on: sedge, umbrella (small-flower umbrella sedge Cyperus difformis); test: Test B flooded paddy: sedge, umbrella; conditions: Flood; 250 g ai/ha; applied to paddy water at 2-leaf stage; visually evaluated after 13 to 15 days
Method in brief: (§4)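 Each compound is applied to the floodwater of pots holding 2-leaf seedlings, water standing 3 cm over the soil throughout. Plants stay in a greenhouse 13 to 15 days before visual scoring against controls from 0 (no effect) to 100 (complete control).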

[11] = tested on: ducksalad (Heteranthera limosa); test: Test B flooded paddy: ducksalad; conditions: Flood; 250 g ai/ha; applied to paddy water at 2-leaf stage; visually evaluated after 13 to 15 days
Description: as §2, §3

[12] = tested on: barnyardgrass (Echinochloa crus-galli); test: Test B flooded paddy: barnyardgrass; conditions: Flood; 250 g ai/ha; applied to paddy water at 2-leaf stage; visually evaluated after 13 to 15 days
Method in brief: as §4

[13] = 125 g ai/ha, 0 to 100 scale, 0 is no effect, 100 is complete control
[14] = 500 g ai/ha, visual rating on 0 to 100 scale (0 no effect, 100 complete control), approximately ten days
[15] = 125 g ai/ha, 0 to 100 scale (0 no effect, 100 complete control)
[16] = 500 g ai/ha, 0 to 100 scale, 0 is no effect, 100 is complete control
[17] = Postemergence, 125 g ai/ha, 0 to 100 scale, 0 is no effect, 100 is complete control
[18] = Postemergence, 500 g ai/ha, visual rating on 0 to 100 scale (0 no effect, 100 complete control), approximately ten days
[19] = Preemergence, 125 g ai/ha, 0 to 100 scale (0 no effect, 100 complete control)
[20] = Preemergence, 500 g ai/ha, 0 to 100 scale, 0 is no effect, 100 is complete control
[21] = 125 g ai/ha, 0 to 100 scale where 0 is no effect and 100 is complete control
[22] = 500 g ai/ha, 0 to 100 scale (0 no effect, 100 complete control)
[23] = Preemergence, 125 g ai/ha, 0 to 100 scale where 0 is no effect and 100 is complete control
[24] = Preemergence, 500 g ai/ha, 0 to 100 scale (0 no effect, 100 complete control)

Cc1nn(-c2ccccc2)nc1C(=O)c1cccc(C(F)(F)F)c1 [Compound 43]
40: Crabgrass, Large plant response rating [2, 14] | Morningglory plant response rating [4, 18]
10: Barnyardgrass plant response rating [1, 13] | Plant response rating, Corn [8, 16]
85: Plant response rating, Ducksalad (0 to 100 scale, 0 is no effect, 100 is complete control) [11]
80: Plant response rating, Crabgrass, Large [2, 16]
100: Plant response rating, Sedge, Umbrella (0 to 100 scale, 0 is no effect, 100 is complete control) [10]
90: Plant response rating, Foxtail, Giant [3, 16]
0: Plant response rating, Barnyardgrass [1, 15] | Morningglory plant response rating [4, 17] | Plant response rating, Velvetleaf [6, 19] | Plant response rating, Velvetleaf [6, 20] | Wheat plant response rating [7, 17] | Plant response rating, Wheat [7, 19] | Plant response rating, Wheat [7, 20] | Plant response rating, Corn [8, 15] | Plant response rating, Rice (0 to 100 scale, 0 is no effect, 100 is complete control) [9] | Plant response rating, Barnyardgrass (0 to 100 scale, 0 is no effect, 100 is complete control) [12]
50: Pigweed plant response rating [5, 17] | Plant response rating, Pigweed [5, 19]
60: Plant response rating, Pigweed [5, 20]
30: Crabgrass, Large plant response rating [2, 13] | Plant response rating, Crabgrass, Large [2, 15] | Foxtail, Giant plant response rating [3, 14] | Wheat plant response rating [7, 18] | Corn plant response rating [8, 14]
20: Barnyardgrass plant response rating [1, 14] | Plant response rating, Barnyardgrass [1, 16] | Foxtail, Giant plant response rating [3, 13] | Plant response rating, Foxtail, Giant [3, 15] | Velvetleaf plant response rating [6, 17] | Velvetleaf plant response rating [6, 18] | Corn plant response rating [8, 13]
70: Pigweed plant response rating [5, 18]

Cc1nn(-c2ccc(F)cc2)nc1Oc1ccc(F)c(C(F)(F)F)c1 [Compound 56]
40: Velvetleaf plant response rating [6, 17] | Plant response rating, Rice (0 to 100 scale, 0 is no effect, 100 is complete control) [9]
50: Crabgrass, Large plant response rating [2, 13]
90: Plant response rating, Crabgrass, Large [2, 15] | Plant response rating, Pigweed [5, 20] | Velvetleaf plant response rating [6, 18]
80: Plant response rating, Barnyardgrass [1, 16] | Crabgrass, Large plant response rating [2, 14] | Foxtail, Giant plant response rating [3, 14] | Plant response rating, Sedge, Umbrella (0 to 100 scale, 0 is no effect, 100 is complete control) [10] | Plant response rating, Ducksalad (0 to 100 scale, 0 is no effect, 100 is complete control) [11]
20: Foxtail, Giant plant response rating [3, 13] | Wheat plant response rating [7, 18] | Corn plant response rating [8, 14]
100: Plant response rating, Crabgrass, Large [2, 16] | Plant response rating, Foxtail, Giant [3, 16] | Pigweed plant response rating [5, 17] | Pigweed plant response rating [5, 18]
10: Barnyardgrass plant response rating [1, 13] | Plant response rating, Morningglory [4, 20] | Plant response rating, Velvetleaf [6, 20] | Wheat plant response rating [7, 17] | Plant response rating, Wheat [7, 20] | Corn plant response rating [8, 13] | Plant response rating, Corn [8, 16]
0: Plant response rating, Barnyardgrass [1, 15] | Plant response rating, Morningglory [4, 19] | Plant response rating, Velvetleaf [6, 19] | Plant response rating, Wheat [7, 19] | Plant response rating, Corn [8, 15]
30: Barnyardgrass plant response rating [1, 14] | Plant response rating, Foxtail, Giant [3, 15] | Plant response rating, Pigweed [5, 19] | Plant response rating, Barnyardgrass (0 to 100 scale, 0 is no effect, 100 is complete control) [12]

Cc1nn(-c2ccc(F)cc2Cl)nc1Cc1ccnc(C(F)(F)F)c1 [Compound 65]
0: Plant response rating, Velvetleaf [6, 19] | Wheat plant response rating [7, 17] | Plant response rating, Wheat [7, 19] | Plant response rating, Wheat [7, 20] | Plant response rating, Corn [8, 15]
20: Crabgrass, Large plant response rating [2, 13] | Foxtail, Giant plant response rating [3, 13] | Plant response rating, Morningglory [4, 20] | Wheat plant response rating [7, 18] | Corn plant response rating [8, 14]
70: Plant response rating, Barnyardgrass [1, 16] | Foxtail, Giant plant response rating [3, 14]
30: Plant response rating, Crabgrass, Large [2, 15] | Velvetleaf plant response rating [6, 17] | Plant response rating, Barnyardgrass (0 to 100 scale, 0 is no effect, 100 is complete control) [12]
50: Crabgrass, Large plant response rating [2, 14]
75: Plant response rating, Sedge, Umbrella (0 to 100 scale, 0 is no effect, 100 is complete control) [10]
90: Plant response rating, Foxtail, Giant [3, 15] | Pigweed plant response rating [5, 17]
25: Plant response rating, Rice (0 to 100 scale, 0 is no effect, 100 is complete control) [9]
10: Barnyardgrass plant response rating [1, 13] | Plant response rating, Barnyardgrass [1, 15] | Plant response rating, Morningglory [4, 19] | Plant response rating, Velvetleaf [6, 20] | Corn plant response rating [8, 13] | Plant response rating, Corn [8, 16]
40: Barnyardgrass plant response rating [1, 14]
80: Plant response rating, Pigweed [5, 19]
100: Plant response rating, Crabgrass, Large [2, 16] | Plant response rating, Foxtail, Giant [3, 16] | Pigweed plant response rating [5, 18] | Plant response rating, Pigweed [5, 20]
60: Velvetleaf plant response rating [6, 18] | Plant response rating, Ducksalad (0 to 100 scale, 0 is no effect, 100 is complete control) [11]

Cc1cc(Oc2nn(-c3ccc(F)cc3)nc2C)ccc1F [Compound 86]
0: Barnyardgrass plant response rating [1, 13] | Barnyardgrass plant response rating [1, 14] | Plant response rating, Barnyardgrass [1, 15] | Plant response rating, Barnyardgrass [1, 16] | Crabgrass, Large plant response rating [2, 13] | Crabgrass, Large plant response rating [2, 14] | Plant response rating, Crabgrass, Large [2, 15] | Plant response rating, Crabgrass, Large [2, 16] | Foxtail, Giant plant response rating [3, 13] | Foxtail, Giant plant response rating [3, 14] | Plant response rating, Foxtail, Giant [3, 15] | Plant response rating, Foxtail, Giant [3, 16] | Morningglory plant response rating [4, 17] | Morningglory plant response rating [4, 18] | Plant response rating, Morningglory [4, 19] | Plant response rating, Morningglory [4, 20] | Pigweed plant response rating [5, 17] | Pigweed plant response rating [5, 18] | Plant response rating, Pigweed [5, 19] | Plant response rating, Pigweed [5, 20] | Velvetleaf plant response rating [6, 17] | Velvetleaf plant response rating [6, 18] | Plant response rating, Velvetleaf [6, 19] | Plant response rating, Velvetleaf [6, 20] | Wheat plant response rating [7, 17] | Wheat plant response rating [7, 18] | Plant response rating, Wheat [7, 19] | Plant response rating, Wheat [7, 20] | Corn plant response rating [8, 13] | Corn plant response rating [8, 14] | Plant response rating, Corn [8, 15] | Plant response rating, Corn [8, 16] | Plant response rating, Rice (0 to 100 scale, 0 is no effect, 100 is complete control) [9] | Plant response rating, Ducksalad (0 to 100 scale, 0 is no effect, 100 is complete control) [11] | Plant response rating, Barnyardgrass (0 to 100 scale, 0 is no effect, 100 is complete control) [12]
50: Plant response rating, Sedge, Umbrella (0 to 100 scale, 0 is no effect, 100 is complete control) [10]

CCc1nn(-c2cccc(C(F)(F)F)c2)nc1Cc1cccc(C(F)(F)F)c1 [Compound 143]
20: Barnyardgrass plant response rating [1, 13] | Plant response rating, Velvetleaf [6, 24] | Plant response rating, Corn [8, 22]
50: Barnyardgrass plant response rating [1, 14] | Plant response rating, Morningglory [4, 17] | Corn plant response rating [8, 14]
30: Plant response rating, Barnyardgrass [1, 21] | Plant response rating, Rice (0 to 100 scale, 0 is no effect, 100 is complete control) [9]
80: Crabgrass, Large plant response rating [2, 13] | Foxtail, Giant plant response rating [3, 13] | Velvetleaf plant response rating [6, 18]
10: Plant response rating, Wheat [7, 17] | Plant response rating, Wheat [7, 24]
0: Plant response rating, Morningglory [4, 23] | Plant response rating, Morningglory [4, 24] | Plant response rating, Velvetleaf [6, 23] | Plant response rating, Wheat [7, 23] | Plant response rating, Corn [8, 21] | Plant response rating, Ducksalad (0 to 100 scale, 0 is no effect, 100 is complete control) [11]
100: Crabgrass, Large plant response rating [2, 14] | Plant response rating, Crabgrass, Large [2, 22] | Foxtail, Giant plant response rating [3, 14] | Plant response rating, Foxtail, Giant [3, 22] | Plant response rating, Pigweed [5, 17] | Pigweed plant response rating [5, 18] | Plant response rating, Pigweed [5, 23] | Plant response rating, Pigweed [5, 24]
40: Plant response rating, Velvetleaf [6, 17] | Wheat plant response rating [7, 18] | Corn plant response rating [8, 13] | Plant response rating, Barnyardgrass (0 to 100 scale, 0 is no effect, 100 is complete control) [12]
75: Plant response rating, Sedge, Umbrella (0 to 100 scale, 0 is no effect, 100 is complete control) [10]
90: Plant response rating, Barnyardgrass [1, 22] | Plant response rating, Crabgrass, Large [2, 21] | Plant response rating, Foxtail, Giant [3, 21] | Morningglory plant response rating [4, 18]
